What was measured:
BRD4 (BDI_K57-E168) = target: T1, BRD4 (BDI_K57-E168) (Homo sapiens, UniProt O60885); test: TR-FRET bromodomain binding assay, first bromodomain of BRD4; settings: 100 nM probe
T1 construct: BD1: amino acids K57-E168; made in house
How it was run: (§1)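 His-tagged BRD4 bromodomain (8 nM) was incubated with Eu-anti-His antibody (1 nM) and an Alexa647-labelled BET-inhibitor probe (100 nM for BDI, 30 nM for BDII) in pH 6.0 phosphate buffer with 2% DMSO for 1 h at room temperature. TR-FRET ratio was read, IC50 fitted by 4-parameter logistic, then converted to Ki.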

BRD4 (BDII_E352-M457) = target: T2, BRD4 (BDII_E352-M457) (Homo sapiens, UniProt O60885); test: TR-FRET bromodomain binding assay, second bromodomain of BRD4; settings: 30 nM probe
T2 construct: protocol; made in house
How it was run: as §1

[1] = test system: breast cancer cell line MX-1; test: MX-1 cell line proliferation assay; assay type: cell-based; settings: MX-1 cells, 3-day proliferation assay, Cell Titer Glo; read-out: Cellular proliferation: EC50
How it was run: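 EC50 comes from sigmoidal fits of Cell Titer Glo luminescence relative to DMSO controls, with assay MSR 2.1. Ten-point 3-fold dilutions (top 3 or 1 μM final) were added to MX-1 breast cancer cells after overnight adhesion. Cells were at 5000/well and proliferation ran 3 days.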

[2] = TR-FRET assay protocol G (compound 0.92 μM-15 pM)
[3] = TR-FRET assay protocol E (compound 9.19 μM-150 pM)

Compound	Ki (BRD4 (BDI_K57-E168); [2]) [nM]	Ki (BRD4 (BDII_E352-M457); [2]) [nM]	EC50 [1] [nM]	Ki (BRD4 (BDI_K57-E168); [3]) [nM]	Ki (BRD4 (BDII_E352-M457); [3]) [nM]
Cn1cc2c3c(c[nH]c3c1=O)C(CCC(O)CO)N(c1ccc(F)cc1F)c1ccc(CS(C)(=O)=O)cc1-2 (stereo not drawn) [Example 140, 4-(2,4-difluorophenyl)-3-(3,4-dihydroxybutyl)-10-methyl-7-((methylsulfonyl)methyl)-3,4-dihydro-1H-1,4,10-triazadibenzo[cd,f]azulen-11(10H)-one]	9.99	2.24	936		
Cn1cc2c3c(c[nH]c3c1=O)C(c1cccc(C#N)c1)N(c1ccc(F)cc1F)c1ccc(CS(C)(=O)=O)cc1-2 (stereo not drawn) [Example 237, 3-(4-(2,4-difluorophenyl)-10-methyl-7-((methylsulfonyl)methyl)-11-oxo-3,4,10,11-tetrahydro-1H-1,4,10-triazadibenzo[cd,f]azulen-3-yl)benzonitrile]	21.8	12.1	313		
Cn1cc2c3c(c[nH]c3c1=O)CN(Cc1cccnn1)c1ccc(CS(C)(=O)=O)cc1-2 [Example 250, 10-methyl-7-((methylsulfonyl)methyl)-4-(pyridazin-3-ylmethyl)-3,4-dihydro-1H-1,4,10-triazadibenzo[cd,f]azulen-11(10H)-one]	8.8	22.5	845		
4-(2-(3-(dimethylamino)propoxy)benzyl)-10-methyl-7-((methylsulfonyl)methyl)-3,4-dihydro-1H-1,4,10-triazadibenzo[cd,f]azulen-11(10H)-one [Example 260]	7.26	3.4	219		
Cn1cc2c3c(c[nH]c3c1=O)C(c1ccccc1-c1ccccc1)N(c1ccc(F)cc1F)c1ccc(CS(C)(=O)=O)cc1-2 (stereo not drawn) [Example 230]	> 238	58.1	528		
CCOC(=O)C1c2c[nH]c3c(=O)n(C)cc(c23)-c2cc(CS(C)(=O)=O)ccc2N1c1ccc(F)cc1 (racemic) [Example 34, ethyl 4-(4-fluorophenyl)-10-methyl-7-((methylsulfonyl)methyl)-11-oxo-3,4,10,11-tetrahydro-1H-1,4,10-triazadibenzo[cd,f]azulene-3-carboxylate]	2.45	3.89	14.7		
Cn1cc2c3c(c[nH]c3c1=O)C(c1ccc(-n3ccnc3)cc1)N(c1ccc(F)cc1F)c1ccc(CS(C)(=O)=O)cc1-2 (racemic) [Example 234, 3-(4-(1H-imidazol-1-yl)phenyl)-4-(2,4-difluorophenyl)-10-methyl-7-((methylsulfonyl)methyl)-3,4-dihydro-1H-1,4,10-triazadibenzo[cd,f]azulen-11(10H)-one]	10.3	9.4	> 1000		
CCNC(=O)c1[nH]c2c(=O)n(C)cc3c2c1CN(c1ccc(Cl)cc1)c1ccccc1-3 [Example 127, 4-(4-chlorophenyl)-N-ethyl-10-methyl-11-oxo-3,4,10,11-tetrahydro-1H-1,4,10-triazadibenzo[cd,f]azulene-2-carboxamide]	2.68	1.35	41.7		
Cn1cc2c3c(c[nH]c3c1=O)CN(c1ccc(Cl)cn1)c1ccc(CS(C)(=O)=O)cc1-2 [Example 245, 4-(5-chloropyridin-2-yl)-10-methyl-7-((methylsulfonyl)methyl)-3,4-dihydro-1H-1,4,10-triazadibenzo[cd,f]azulen-11(10H)-one]	0.54	0.94	1.09		
Cn1cc2c3c(c(C#N)[nH]c3c1=O)CN(c1ccc(Cl)cc1)c1ccccc1-2 [Example 201, 4-(4-chlorophenyl)-10-methyl-11-oxo-3,4,10,11-tetrahydro-1H-1,4,10-triazadibenzo[cd,f]azulene-2-carbonitrile]	0.85	3.2	27.8		
10-methyl-4-(pyridin-2-yl)-7-(pyrrolidin-1-ylsulfonyl)-3,4-dihydro-1H-1,4,5,10-tetraazadibenzo[cd,f]azulen-11(10H)-one [Example 266]	17.8	8.15	42.7		
Cn1cc2c3c(c[nH]c3c1=O)CN(C1CCC(NC(=O)OC(C)(C)C)CC1)c1ccc(CS(C)(=O)=O)cc1-2 (stereo not drawn) [Example 197, tert-butyl ((trans)-4-(10-methyl-7-((methylsulfonyl)methyl)-11-oxo-10,11-dihydro-1H-1,4,10-triazadibenzo[cd,f]azulen-4(3H)-yl)cyclohexyl)carbamate]	1.52	2.65	2.66		

Results, then the compound that gave them:

Ki (BRD4 (BDI_K57-E168); [2]) [nM]	Ki (BRD4 (BDII_E352-M457); [2]) [nM]	EC50 [1] [nM]	Ki (BRD4 (BDI_K57-E168); [3]) [nM]	Ki (BRD4 (BDII_E352-M457); [3]) [nM]	Compound
4.11	1.96	41.2			Cn1cc2c3c(c[nH]c3c1=O)C(CCNC(=O)OCc1ccccc1)N(c1ccc(F)cc1F)c1ccc(CS(C)(=O)=O)cc1-2 (racemic) [Example 229, benzyl (2-(4-(2,4-difluorophenyl)-10-methyl-7-((methylsulfonyl)methyl)-11-oxo-3,4,10,11-tetrahydro-1H-1,4,10-triazadibenzo[cd,f]azulen-3-yl)ethyl)carbamate]
9.29	1.4	204			CC(=O)OCC(CCC1c2c[nH]c3c(=O)n(C)cc(c23)-c2cc(CS(C)(=O)=O)ccc2N1c1ccc(F)cc1F)OC(C)=O (stereo not drawn) [Example 133, 4-(4-(2,4-difluorophenyl)-10-methyl-7-((methylsulfonyl)methyl)-11-oxo-3,4,10,11-tetrahydro-1H-1,4,10-triazadibenzo[cd,f]azulen-3-yl)butane-1,2-diyl diacetate]
39.6	23.9	77.4			CCCCNC(=O)C1c2c[nH]c3c(=O)n(C)cc(c23)-c2cc(CS(C)(=O)=O)ccc2N1c1ccc(F)cc1F (stereo not drawn) [Example 157, N-butyl-4-(2,4-difluorophenyl)-10-methyl-7-((methylsulfonyl)methyl)-11-oxo-3,4,10,11-tetrahydro-1H-1,4,10-triazadibenzo[cd,f]azulene-3-carboxamide]
		19.2	24.6	8.36	CCS(=O)(=O)c1ccc2c(c1)-c1cn(C)c(=O)c3[nH]cc(c13)CN2CC1CC1 [Example 2, 4-(cyclopropylmethyl)-7-(ethylsulfonyl)-10-methyl-3,4-dihydro-1H-1,4,10-triazadibenzo[cd,f]azulen-11(10H)-one]
4.84	7.68	7.26			Cn1cc2c3c(c[nH]c3c1=O)CN(CC1CC1)c1ccccc1-2 [Example 13, 4-(cyclopropylmethyl)-10-methyl-3,4-dihydro-1H-1,4,10-triazadibenzo[cd,f]azulen-11(10H)-one]
3.07	1.76	51.5			CNC(=O)c1cc(CS(C)(=O)=O)cc2c1N(c1ccc(F)cc1F)Cc1c[nH]c3c(=O)n(C)cc-2c13 [Example 241, 4-(2,4-difluorophenyl)-N,10-dimethyl-7-((methylsulfonyl)methyl)-11-oxo-3,4,10,11-tetrahydro-1H-1,4,10-triazadibenzo[cd,f]azulene-5-carboxamide]
11.3	3.14	> 1000			Cn1cc2c3c(c[nH]c3c1=O)C(CCC(=O)NC1CCNCC1)N(c1ccc(F)cc1F)c1ccc(CS(C)(=O)=O)cc1-2 (stereo not drawn) [Example 132, 3-(4-(2,4-difluorophenyl)-10-methyl-7-((methylsulfonyl)methyl)-11-oxo-3,4,10,11-tetrahydro-1H-1,4,10-triazadibenzo[cd,f]azulen-3-yl)-N-(piperidin-4-yl)propanamide]

Source: patent publication US10035800B2 (AbbVie Inc., priority 2013, dated 2018)
